Results reported in patent US6482799B1, “Self-preserving multipurpose ophthalmic solutions incorporating a polypeptide antimicrobial” (The Regents of the University of California, priority 1999, dated 2002).

Legend:
[1] = Toxicity study, intravaginal administration
Protocol: (§1) The objective of this study was to determine if the treatment regimen proposed for the efficacy study of the defensin formulations caused target organ toxicity. This study is not intended to support application for research or marketing permits for products regulated by governmental agencies. The purpose of this study is to provide range-finding data is therefore, not within the scope of Good Laboratory Practice Guidelines.
Mice were treated by intravaginal administration twice daily at ˜12 hour intervals administered on Days 1 through 4. Mice were treated intraperitoneally three times on Day 1 at ˜4 hour intervals, and twice daily at ˜12 hour intervals administered on days 2 through 4.
(§2) Dosing volumes were 0.1 mL/mouse (intravaginal), 0.1 mL/mouse (intraperitoneal), and 20 μL/rabbit. The study lasted 5 days, with day 1 the first day of dose administration.
(§3) The dose formulations were supplied in pyrogen-free saline.

[2] = Toxicity study, topical ocular administration
Protocol: as §1
Rabbits were treated four times on Day 1 at ˜1 hour intervals, and twice daily at ˜12 hour intervals administered on Days 2 through 4.
as §2, §3

[3] = test system: P. aeruginosa (ATCC 27853); test: Protocol 3 time-dependent antimicrobial activity at one dose level; type: cell-based, Pseudomonas aeruginosa
[4] = test system: Pseudomonas aeruginosa (ATCC 27853); test: Protocol 1 kill curve / MIC, 1 hour at 37° C. in glass tubes; type: cell-based
Protocol: This protocol is used to develop dose-response (kill) curves to calculate the minimal inhibitory concentration of an indolicidin (e.g., L-indolicidin (L-IND)) when formulated in a commercially available phosphate buffered saline (PBS) solution. In addition, for comparative purposes, kill curves are established for the following three commonly available commercial lens-care products containing different preservatives:
An initial dose range experiment is performed to determine a suitable dose range for the final experiment. The indolicidin (e.g., L-IND) is tested in the preliminary toxicity experiment at 13 different dose levels in a range between 500 μg/ml and 0.125 μg/ml. The 3 control samples with preservatives are tested at 13 different dose levels with the highest dose level representing the undiluted solution. […]
Viable counts of the bacteria are performed by 10-fold serial dilutions in sterile PBS and by plating 0.1 ml aliquots on nutrient agar plates. […] The plates are incubated overnight at 37° C. and colonies are counted and recorded. […]
Survival is expressed as number of surviving bacteria (CFU/ml) for each dilution of the test article and control solutions. The lowest dose of the test article that results in complete kill of the test organism, compared to the non-exposed control, is determined to be the MIC value. […]

[5] = 10, 100 or 1000 μg/mL, BPN-A-amide 30, 300 or 3000 μg/mL

With `CC[C@H](C)[C@H](N)C(=O)N[C@@H](CC(C)C)C(=O)N1CCC[C@H]1C(=O)N[C@@H](Cc1c[nH]c2ccccc12)C(=O)N[C@@H](CCCCN)C(=O)N[C@@H](Cc1c[nH]c2ccccc12)C(=O)N1CCC[C@H]1C(=O)N[C@@H](Cc1c[nH]c2ccccc12)C(=O)N[C@@H](Cc1c[nH]c2ccccc12)C(=O)N1CCC[C@H]1C(=O)N[C@@H](Cc1c[nH]c2ccccc12)C(=O)N[C@@H](CCCNC(=N)N)C(=O)N[C@@H](CCCNC(=N)N)C(N)=O` [L-indolicidin, H2N-ILPWKWPWWPWRR-CONH2] the “Tissues from the reproductive tract (histology)” value ([1]; 0.1 mL/mouse at 10, 100 or 1000 μg/mL, BPN-A-amide at 30, 300 or 300 μ/mL) was “within normal limits”, the “deaths or clinical signs of toxicity” value [1, 5] was “No deaths or biologically significant clinical signs of toxicity” and the “deaths or clinical signs of toxicity” value [2, 5] was “No deaths or biologically significant clinical signs of toxicity”. For the same compound, the “toxic changes in rabbit eyes (histology)” value ([2]; 20 μL/rabbit at 10, 100 or 1000 μg/mL, BPN-A-amide at 30, 300 or 3000 μ/mL) was “No toxic changes”, the log cell reduction ([3]; 50 μg/ml, 10 mM sodium phosphate buffer, as early as after 1 minute exposure, initial 2.0×10^6 CFU/ml) was ~6 log and the survival ([3]; 50 μg/ml, 10 mM sodium phosphate buffer, exposure time 0 hr) was 2.4 × 10^6 CFU/ml. The survival ([3]; 50 μg/ml, 10 mM sodium phosphate buffer, exposure time 1 hr) was 1.6 × 10^6 CFU/ml, the survival ([3]; 50 μg/ml, 10 mM sodium phosphate buffer, exposure time 2 hr) was 1.1 × 10^5 CFU/ml and the survival ([3]; 50 μg/ml, 10 mM sodium phosphate buffer, exposure time 4 hr) was 0 CFU/ml. It also gave a survival ([3]; 50 μg/ml, 10 mM sodium phosphate buffer, exposure time 6 hr) of 0 CFU/ml, a survival ([3]; 50 μg/ml, 10 mM sodium phosphate buffer, exposure time 12 hr) of 0 CFU/ml and a survival ([3]; 50 μg/ml, 10 mM sodium phosphate buffer, up to 15 minutes) of 100%. For the same compound, the killing ([3]; 50 μg/ml, 100 mM sodium phosphate buffer, exposures of between 15 and 60 min) was “virtually complete killing”, the survival ([3]; 50 μ/ml, 10 mM sodium phosphate buffer, after 4 hours exposure) was “no detectable survival” and the survival ([4]; all dose levels 100-6.25 μg/ml, 10 mM phosphate buffer pH 7.4, 2.01×10^5 CFU/ml) was 100%. For the same compound, the survival ([4]; all dose levels 5,000-1.25 μg/ml in PBS, 1 hour 37° C., 5.9×10^5 CFU/ml) was 100%.
